Literature values in patent US20100297230A1, “COMPOSITIONS AND METHODS FOR PROSTATE AND MENSTRUAL/MENOPAUSAL RELATED HEALTH” (priority 2009, published 2010).
Entries after “also recorded” stand apart in the source; their conditions may differ. Like-named read-outs stand apart in the source and are kept apart here. One block for each compound: values may come before it.

What was measured:
[1] = test system: rats with prostatic hyperplasia; conditions: testosterone enanthate treated rats; 0.1 mg benzylglucosinolate
[2] = single dose of Epimedium tea
[3] = in vivo
[4] = test system: late postmenopausal women; conditions: daily 60 mg icariin, 15 mg daidzein, 3 mg genistein; over 25 months; compared to placebo
estrogen receptor beta = estrogen receptor beta (Homo sapiens, UniProt Q92731)
estrogen receptor beta, sequence (Q92731 whole entry, species assumed): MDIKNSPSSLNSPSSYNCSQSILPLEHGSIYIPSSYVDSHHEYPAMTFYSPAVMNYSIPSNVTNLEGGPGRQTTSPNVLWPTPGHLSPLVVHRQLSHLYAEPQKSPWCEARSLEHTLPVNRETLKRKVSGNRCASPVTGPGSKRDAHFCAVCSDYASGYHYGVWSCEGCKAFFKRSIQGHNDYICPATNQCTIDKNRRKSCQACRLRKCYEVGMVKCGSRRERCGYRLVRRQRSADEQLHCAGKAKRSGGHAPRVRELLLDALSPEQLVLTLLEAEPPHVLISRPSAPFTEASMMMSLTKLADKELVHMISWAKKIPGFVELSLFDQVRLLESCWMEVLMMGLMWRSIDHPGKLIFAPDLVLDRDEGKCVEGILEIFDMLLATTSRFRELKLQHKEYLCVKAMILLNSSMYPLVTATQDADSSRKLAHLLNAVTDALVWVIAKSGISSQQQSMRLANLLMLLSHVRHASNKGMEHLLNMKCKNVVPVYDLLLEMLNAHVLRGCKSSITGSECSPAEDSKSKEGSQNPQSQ

[5] = molecular target: T1, primary alpha receptor (estrogen receptor) (Homo sapiens, UniProt P03372)
T1 sequence (P03372 1-595): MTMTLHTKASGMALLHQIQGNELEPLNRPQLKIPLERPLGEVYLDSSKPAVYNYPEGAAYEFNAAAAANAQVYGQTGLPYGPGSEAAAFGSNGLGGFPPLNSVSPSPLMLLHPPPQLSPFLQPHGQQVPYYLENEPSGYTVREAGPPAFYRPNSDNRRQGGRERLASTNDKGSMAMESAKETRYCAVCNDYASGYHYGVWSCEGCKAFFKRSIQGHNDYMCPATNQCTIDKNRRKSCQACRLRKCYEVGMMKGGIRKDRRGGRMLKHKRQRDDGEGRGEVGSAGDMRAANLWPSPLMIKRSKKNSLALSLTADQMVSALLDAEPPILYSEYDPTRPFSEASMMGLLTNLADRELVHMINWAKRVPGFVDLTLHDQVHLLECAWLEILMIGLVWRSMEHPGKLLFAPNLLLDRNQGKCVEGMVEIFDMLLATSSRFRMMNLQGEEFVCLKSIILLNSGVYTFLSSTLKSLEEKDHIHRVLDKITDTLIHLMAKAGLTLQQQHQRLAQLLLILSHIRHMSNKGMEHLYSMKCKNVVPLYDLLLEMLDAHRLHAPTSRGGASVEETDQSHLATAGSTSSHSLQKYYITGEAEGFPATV

[6] = test system: human prostate carcinoma PC-3 cells; conditions: in vitro
[7] = test system: human prostatic smooth muscle cells
rats = conditions: for prostate and seminal vesicle size: 270 mg/kg daily injection, compared to all other treatments, P<0.05
[8] = male and female subjects 18-55 yrs
MMP2 = conditions: PC-3 cells
MMP9 = conditions: PC-3 cells

SMILES: O=S(=O)(O)O/N=C(\Cc1ccccc1)S[C@@H]1O[C@H](CO)[C@@H](O)[C@H](O)[C@H]1O [Benzylglucosinolate]
prostate weight [1]: as effective at reducing prostate weight as 0.1 mg finasteride

SMILES: O=C(/C=C/c1ccc(O)c(O)c1)O[C@H](Cc1ccc(O)c(O)c1)C(=O)O [Rosmarinic acid]
metabolic conversion [3]: converted to 3-O-methyl rosmarinic acid
time to enter the system after administration [3]: ≤ 20 min
AP-1-dependent activation of COX-2 expression (COX-2 expression): potential preventative effects

SMILES: O=c1c(O)c(-c2ccc(O)c(O)c2)oc2cc(O)cc(O)c12 [quercetin, 2-(3,4-dihydroxyphenyl)-3,5,7-trihydroxy-4H-chromen-4-one]
prostate and seminal vesicle size (rats): decreased significantly
prostate and seminal vesicle size (rats; listed as Quercetin): effective at reducing prostate size
sperm quality and sexual organ function (rats; 270 mg/kg group): positive effect
peak plasma concentration [8]: 463 ng/mL
time to peak plasma concentration [8]: 3.5 h
MMP2 activity (MMP2; P<0.05): significantly inhibited
MMP2 expression (MMP2; dose dependent manner): inhibited
MMP9 activity (MMP9; P<0.05): significantly inhibited
MMP9 expression (MMP9; dose dependent manner): inhibited

Second part, led by results:

serum desmethylicaritin ([2]; desmethyl-icaritin 0.19 mg): not detected
SMILES: CC(C)=CCc1c(O)cc(O)c2c(=O)c(O)c(-c3ccc(O)cc3)oc12 [Desmethylicaritin]

peak serum icariin concentration ([2]; 12.6 mg icariin ingested): 2.1 ng/mL
interaction with estrogen receptor alpha [5]: not with the primary alpha receptor
SMILES: COc1ccc(-c2oc3c(CC=C(C)C)c(O[C@@H]4O[C@H](CO)[C@@H](O)[C@H](O)[C@H]4O)cc(O)c3c(=O)c2O[C@@H]2O[C@@H](C)[C@H](O)[C@@H](O)[C@H]2O)cc1 [icariin, 5-hydroxy-2-(4-methoxyphenyl)-8-(3-methylbut-2-enyl)-7-[(2S,3R,4S,5S,6R)-3,4,5-trihydroxy-6-(hydroxymethyl)oxan-2-yl]oxy-3-[(2S,3R,4R,5R,6S)-3,4,5-trihydroxy-6-methyloxan-2-yl]oxychromen-4-one]
bone mass density / bone loss [4]: increases bone density
interaction with estrogen receptor beta (estrogen receptor beta): interact with estrogen receptor beta; also recorded: targets the beta receptor over the alpha receptor

time of peak icaritin level [2]: 8 h
SMILES: COc1ccc(-c2oc3c(CC=C(C)C)c(O)cc(O)c3c(=O)c2O)cc1 [icaritin]
growth of prostate carcinoma cells [6]: inhibit prostate cancer cell growth
growth of prostate carcinoma cells ([6]; listed as Icaritin): strongly inhibited growth
apoptosis of human prostatic smooth muscle cells [7]: inducing apoptosis; also recorded: induces apoptosis
cyclin D1 and CDK4 expression [7]: decreases
growth of human prostatic smooth muscle cells [7]: reduces the growth
